The results in this text go back to patent US20260193272A1, “SELENIUM CONTAINING HETEROCYCLE COMPOUNDS AND USE THEREOF” (HELIOS HUAMING BIOPHARMA CO., LTD., priority 2022, published 2026).

The assay addresses T1, PAD4 enzyme (Homo sapiens, UniProt Q9UM07).
T1 construct: PAD4 enzyme was diluted to 30 nM in Assay Buffer
Briefly: In-vitro measurement for enzymatic PAD4 citrullination inhibition activity (ammonia release). It is filed as biochemical. Here is the method: Citrullination was detected via ammonia release based on published methodology (Nature Chemical Biology, 2015, 11: 189-191).
PAD4 enzyme was diluted to 30 nM in Assay Buffer (100 mM HEPES, 50 mM NaCl, 2 mM DTT, 0.6 mg/ml BSA, pH 8) and added to wells containing various concentrations of compound or DMSO vehicle (0.8% final) in a high-volume black 96-well plate (Greiner). Following a 60-min preincubation at 27° C., the reaction was initiated by the addition of substrate (3 mM BAEE in 100 mM HEPES, 50 mM NaCl, […] CaCl2, 2 mM DTT, pH 8). The reaction was stopped after 90 min by the addition of stop/detection buffer containing 50 mM EDTA, 2.6 mM o-phthalaldehyde and 2.6 mM DTT. Assays were incubated at 27° C. for 120 min before measuring fluorescence (λex 410/λem 476) on an Envision plate reader (PerkinElmer). After which IC50 values were calculated using GraphPad Prism 8.0.

[1] abbreviates: direct comparison of prior art and selenium containing compounds, read-out: IC50 for enzymatic PAD4 citrullination inhibition.
Where [2] appears, read: read-out: IC50 of inhibition enzymatic activity of PAD4 (Colorimetric assays, Nature Chemical Biology, 2015, 11: 189-191).

Like-named read-outs stand apart in the source and are kept apart here.

T1 sequence (Q9UM07 whole entry): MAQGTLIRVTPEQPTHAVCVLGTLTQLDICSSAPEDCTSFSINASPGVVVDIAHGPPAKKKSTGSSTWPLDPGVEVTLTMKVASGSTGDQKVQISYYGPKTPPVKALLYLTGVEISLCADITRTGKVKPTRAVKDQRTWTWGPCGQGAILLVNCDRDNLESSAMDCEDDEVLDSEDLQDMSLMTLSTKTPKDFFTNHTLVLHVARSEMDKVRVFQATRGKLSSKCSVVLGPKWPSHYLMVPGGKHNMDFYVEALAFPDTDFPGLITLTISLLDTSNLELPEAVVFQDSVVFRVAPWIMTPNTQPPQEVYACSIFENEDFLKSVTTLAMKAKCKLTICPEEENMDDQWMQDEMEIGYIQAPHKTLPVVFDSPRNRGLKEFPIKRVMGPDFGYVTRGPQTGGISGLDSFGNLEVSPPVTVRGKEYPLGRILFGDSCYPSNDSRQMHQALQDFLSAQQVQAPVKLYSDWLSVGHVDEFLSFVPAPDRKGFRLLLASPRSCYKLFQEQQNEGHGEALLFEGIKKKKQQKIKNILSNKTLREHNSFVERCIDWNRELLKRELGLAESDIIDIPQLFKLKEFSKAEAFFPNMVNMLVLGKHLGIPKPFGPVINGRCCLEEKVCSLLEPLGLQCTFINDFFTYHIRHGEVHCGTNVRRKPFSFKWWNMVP

Regarding `COc1cc(C(=O)N2C[C@H]3CC[C@@H]2[C@@H]3N)cc2nc(-c3cc4sc(C)cc4n3CC3CC3)n(C)c12` [Cpd-27, reference compound], under setting [1], the IC50 was determined as 272 nM.

As to `COc1cc(C(=O)N2CCC[C@@H](N)C2)cc2nc(-c3cc4sc(C5CC5)nc4n3CC3CC3)n(C)c12` [Cpd-118, reference compound], under setting [1], the half-maximal inhibitory concentration (IC50) worked out at 66.8 nM.

For the compound `CCc1nc2c(cc(-c3nc4cc(C(=O)N5C[C@H]6CC[C@@H]5[C@@H]6N)cc(OC)c4n3C)n2CC2CC2)[se]1` [HH-1], the half-inhibitory concentration (IC50) under setting [2] was no more than 50 nM.

Regarding `CCc1nc2c(cc(-c3nc4cc(C(=O)N5C[C@H](N)CC[C@@H]5C)cc(OC)c4n3C)n2CC2CC2)[se]1` [HH-2], the IC50 under setting [2] is no more than 50 nM.

As for `CCc1nc2c(cc(-c3nc4cc(C(=O)N5C[C@H](N)C[C@@H](F)C5)cc(OC)c4n3C)n2CC2CC2)[se]1` [HH-3], under setting [2], the half-maximal inhibitory concentration (IC50) is no more than 50 nM.

On to `COc1cc(C(=O)N2CCC[C@@H](N)C2)cc2nc(-c3cc4[se]c(C5CC5)nc4n3CC3CC3)n(C)c12` [HH-4], for which the IC50 is, setting by setting: under setting [1], 22.4 nM; under setting [2], no more than 50 nM.

As to `COc1cc(C(=O)N2C[C@H](N)C[C@@H](F)C2)cc2nc(-c3cc4[se]c(C5CC5)nc4n3CC3CC3)n(C)c12` [HH-5], the IC50 under setting [2] is no more than 50 nM.

As to `COc1cc(C(=O)N2C[C@H](N)CC[C@@H]2C)cc2nc(-c3cc4[se]c(C5CC5)nc4n3CC3CC3)n(C)c12` [HH-6], under setting [2], the IC50 was no more than 50 nM.

For `COc1cc(C(=O)N2C[C@H]3CC[C@@H]2[C@@H]3N)cc2nc(-c3cc4[se]c(C5CC5)nc4n3CC3CC3)n(C)c12` [HH-7], the IC50 under setting [2] is no more than 50 nM.

For `COc1cc(C(=O)N2C[C@H](N)CC[C@@H]2C)cc2nc(-c3cc4[se]c(C)nc4n3CC3CC3)n(C)c12` [HH-8], the IC50 under setting [2] was no more than 50 nM.

For the compound `COc1cc(C(=O)N2C[C@H]3CC[C@@H]2[C@@H]3N)cc2nc(-c3cc4[se]c(C)nc4n3CC3CC3)n(C)c12` [HH-9], the half-inhibitory concentration (IC50) under setting [2] is no more than 50 nM.

Turning to `COc1cc(C(=O)N2C[C@H](N)C[C@@H](F)C2)cc2nc(-c3cc4[se]c(C)nc4n3CC3CC3)n(C)c12` [HH-10], under setting [2], the IC50 is no more than 50 nM.

Regarding `COc1cc(C(=O)N2CC[C@@H](O)[C@@H](N)C2)cc2nc(-c3cc4[se]c(C)nc4n3CC3CC3)n(C)c12` [HH-11], the IC50 under setting [2] lay within 100 to 500 nM.

For the compound `COc1cc(C(=O)N2CCC[C@@H](N)C2)cc2nc(-c3cc4[se]c(C)nc4n3CC3CC3)n(C)c12` [HH-12], under setting [2], the 50% inhibitory concentration (IC50) is no more than 50 nM.

As for `COc1cc(C(=O)N2C[C@H](N)CC(F)(F)C2)cc2nc(-c3cc4[se]c(C)nc4n3CC3CC3)n(C)c12` [HH-13], the half-inhibitory concentration (IC50) under setting [2] is greater than 500 nM.

On to `COc1cc(C(=O)N2CC[C@@H](F)[C@@H](N)C2)cc2nc(-c3cc4[se]c(C)nc4n3CC3CC3)n(C)c12` [HH-14], for which, under setting [2], the IC50 is 100 to 500 nM.

`COc1cc(C(=O)N2C[C@H](N)CC[C@@H]2C)cc2nc(-c3cc4[se]c(C)nc4n3CC3CCC3)n(C)c12` [HH-15]: the IC50 under setting [2] is no more than 50 nM.

Consider `COc1cc(C(=O)N2C[C@H]3CC[C@@H]2[C@@H]3N)cc2nc(-c3cc4[se]c(C)nc4n3CC3CCC3)n(C)c12` [HH-16], for which the half-inhibitory concentration (IC50) under setting [2] is no more than 50 nM.

With `COc1cc(C(=O)N2CCC[C@@H](N)C2)cc2nc(-c3cc4[se]c(C)nc4n3CC3CCC3)n(C)c12` [HH-17], under setting [2], the IC50 was no more than 50 nM.

As for `COc1cc(C(=O)N2C[C@H](N)C[C@@H](F)C2)cc2nc(-c3cc4[se]c(C)nc4n3CC3CCC3)n(C)c12` [HH-18], the IC50 under setting [2] was no more than 50 nM.

For `CCn1c(-c2nc3cc(C(=O)N4C[C@H](N)CC[C@@H]4C)cc(OC)c3n2C)cc2[se]c(C)nc21` [HH-19], the half-inhibitory concentration (IC50) under setting [2] fell in the range of 100 to 500 nM.

Regarding `CCn1c(-c2nc3cc(C(=O)N4C[C@H]5CC[C@@H]4[C@@H]5N)cc(OC)c3n2C)cc2[se]c(C)nc21` [HH-20], the half-maximal inhibitory concentration (IC50) under setting [2] was 100 to 500 nM.

As for `CCn1c(-c2nc3cc(C(=O)N4C[C@H](N)C[C@@H](F)C4)cc(OC)c3n2C)cc2[se]c(C)nc21` [HH-21], the 50% inhibitory concentration (IC50) under setting [2] lay in the range of 100 to 500 nM.

Take `COc1cc(C(=O)N2C[C@H](N)CC[C@@H]2C)cc2nc(-c3cc4[se]c(C)nc4n3CC(C)(C)C)n(C)c12` [HH-22]: the IC50 under setting [2] was in the range of 100 to 500 nM.

Take `COc1cc(C(=O)N2C[C@H](N)CC[C@@H]2C)cc2nc(-c3cc4[se]c(C)nc4n3CC(F)(F)F)n(C)c12` [HH-23]: the IC50 under setting [2] lay within 100 to 500 nM.

Take `COc1ccccc1Cn1c(-c2nc3cc(C(=O)N4C[C@H](N)CC[C@@H]4C)cc(OC)c3n2C)cc2[se]c(C)nc21` [HH-26]: the half-maximal inhibitory concentration (IC50) under setting [2] lay in the range of 100 to 500 nM.

In the case of `COc1cccc(Cn2c(-c3nc4cc(C(=O)N5C[C@H](N)CC[C@@H]5C)cc(OC)c4n3C)cc3[se]c(C)nc32)c1` [HH-27], the half-maximal inhibitory concentration (IC50) under setting [2] lay in the range of 100 to 500 nM.

With `COc1cc(C(=O)N2C[C@H](N)CC[C@@H]2C)cc2nc(-c3cc4[se]c(C)nc4n3Cc3ccc(C(F)(F)F)cc3)n(C)c12` [HH-28], the IC50 under setting [2] is greater than 500 nM.

Regarding `COc1cc(C(=O)N2C[C@H](N)CC[C@@H]2C)cc2nc(-c3cc4[se]c(C)nc4n3Cc3ccncc3)n(C)c12` [HH-29], the half-inhibitory concentration (IC50) under setting [2] fell in the range of 100 to 500 nM.

In the case of `COc1cc(C(=O)N2C[C@H]3CC[C@@H]2[C@@H]3N)cc2nc(-c3cc4[se]c(C)nc4n3Cc3ccncc3)n(C)c12` [HH-30], the 50% inhibitory concentration (IC50) under setting [2] was in the range of 100 to 500 nM.

As for `COc1cc(C(=O)N2C[C@H](N)CC[C@@H]2C)cc2nc(-c3cc4[se]c(C)nc4n3Cc3ccccn3)n(C)c12` [HH-31], the IC50 under setting [2] lay within 100 to 500 nM.

With `COc1cc(C(=O)N2C[C@H](N)CC[C@@H]2C)cc2nc(-c3cc4[se]c(C)nc4n3Cc3ccoc3)n(C)c12` [HH-32], the IC50 under setting [2] was in the range of 100 to 500 nM.

As to `COc1cc(C(=O)N2C[C@H](N)CC[C@@H]2C)cc2nc(-c3cc4[se]c(C)nc4n3Cc3ccsc3)n(C)c12` [HH-34], under setting [2], the IC50 lay within 50 to 100 nM.

In the case of `COc1cc(C(=O)N2C[C@H](N)CC[C@@H]2C)cc2nc(-c3cc4[se]c(C5CCNCC5)nc4n3CC3CC3)n(C)c12` [HH-35], the IC50 under setting [2] is 50 to 100 nM.

Take `COc1cc(C(=O)N2C[C@H](N)C[C@@H](F)C2)cc2nc(-c3cc4[se]c(C5CCNCC5)nc4n3CC3CC3)n(C)c12` [HH-36]: the IC50 under setting [2] lay within 100 to 500 nM.

For the compound `COc1cc(C(=O)N2C[C@H]3CC[C@@H]2[C@@H]3N)cc2nc(-c3cc4[se]c(C5CCNCC5)nc4n3CC3CC3)n(C)c12` [HH-37], the IC50 under setting [2] was in the range of 100 to 500 nM.

Take `COc1ccccc1-c1nc2c(cc(-c3nc4cc(C(=O)N5C[C@H](N)CC[C@@H]5C)cc(OC)c4n3C)n2CC2CC2)[se]1` [HH-38]: the IC50 under setting [2] was in the range of 100 to 500 nM.

Turning to `COc1ccccc1-c1nc2c(cc(-c3nc4cc(C(=O)N5C[C@H]6CC[C@@H]5[C@@H]6N)cc(OC)c4n3C)n2CC2CC2)[se]1` [HH-39], under setting [2], the IC50 was greater than 500 nM.

Consider `COc1ccc(-c2nc3c(cc(-c4nc5cc(C(=O)N6C[C@H](N)C[C@@H](F)C6)cc(OC)c5n4C)n3CC3CC3)[se]2)cc1` [HH-40], for which the IC50 under setting [2] was in the range of 100 to 500 nM.

Consider `COc1cc(C(=O)N2C[C@H](N)CC[C@@H]2C)cc2nc(-c3cc4[se]c(-c5ccncc5)nc4n3CC3CC3)n(C)c12` [HH-41], for which, under setting [2], the concentration for half-maximal inhibition (IC50) lay in the range of 100 to 500 nM.

In the case of `COc1cc(C(=O)N2C[C@H](N)C[C@@H](F)C2)cc2nc(-c3cc4[se]c(-c5ccncc5)nc4n3CC3CC3)n(C)c12` [HH-42], under setting [2], the IC50 lay within 100 to 500 nM.

Take `COc1cc(C(=O)N2C[C@H](N)CC[C@@H]2C)cc2nc(-c3cc4[se]c(-c5ccccn5)nc4n3CC3CC3)n(C)c12` [HH-43]: under setting [2], the concentration for half-maximal inhibition (IC50) was in the range of 100 to 500 nM.

Turning to `COc1cc(C(=O)N2C[C@H]3CC[C@@H]2[C@@H]3N)cc2nc(-c3cc4[se]c(-c5ccccn5)nc4n3CC3CC3)n(C)c12` [HH-44], the concentration for half-maximal inhibition (IC50) under setting [2] fell in the range of 100 to 500 nM.

Take `COc1cc(C(=O)N2C[C@H](N)CC[C@@H]2C)cc2nc(-c3cc4[se]c(-c5ccc(C)cc5)nc4n3CC3CC3)n(C)c12` [HH-45]: the IC50 under setting [2] is greater than 500 nM.
